Experimental data: patent publication US20240025856A1, “1,2,3,4-TETRAHYDROQUINOLINE DERIVATIVES AS INHIBITORS OF THE YAP/TAZ-TEAD ACTIVATION FOR TREATING CANCER” (KATHOLIEKE UNIVERSITEIT LEUVEN, priority 2020, published 2024)

How the values were obtained:
KMRC3 = test: Cancer cell line proliferation assay (CellTiter-Glo), KMRC3; type: cell-based; conditions: 144 h, Kidney, LATS1 HOM DEL, 6 days
Method: (§1) All the cell lines are cultured in the media supplemented with 10-20% fetal bovine serum, in the temperature of 37° C., 5% CO2 and 95% humidity. The indicated cell lines (all sourced from the ATCC cell culture collection) are plated in 96-Well Flat Clear Bottom Black Polystyrene TC-Treated Microplates with the final cell density of 4×10^3 cells/well. Cells are incubated overnight and then compounds, dissolved in DMSO, are added in dose-response. Cells are incubated with compound dilutions for another 6 days. Cell viability is quantitated using CellTiter-Glo reagent (Perkin Elmer) and measured using an EnVision Multi Label Reader.

NCI-H226 tumor cells = test: In vivo efficacy in a subcutaneous human lung cancer xenograft model (NCI-H226 mesothelioma); parameters: species or system Female BALB/c Nude Mice; conditions: 100 mg/kg, p.o., BID × 21 days
Method: The NCI-H226 tumor cells were maintained in vitro with RPMI-1640 medium supplemented with 10% fetal bovine serum at 37° C. in an atmosphere of 5% CO2 in air. The cells in exponential growth phase were harvested and the cell numbers were quantitated by hemocytometer and cell viability was quantified by Trypan Blue counting before tumor inoculation. Balb/c nude mouse were inoculated with subcutaneously in the right front flank regions with 1×10^7 of NCI-H226 tumor cells in 0.1 mL of PBS mixed with 0.1 ml of Matrigel (1:1) for tumor development. All animals were randomized based on the tumor sizes as well as body weights and randomly allocated to the different study groups (8 mice per group). The randomization started when the mean tumor size at the right rear flank region had reached approximately 172 mm^3. The date of randomization was denoted as Day 0.
Cpd. No. 084 was formulated in Vehicle 1 (PEG400 (40%)+PG (30%)+WFI (30%)) as a 10 mg/ml solution, and dosed orally, twice daily, using 10 μl/g (final dose is 100 mg/kg) for 21 days. Cpd. No. 001 was formulated in Vehicle 2 (PEG400 (65%)+PG (20%)+WFI (15%)) as a 10 mg/ml solution, and dosed orally, twice daily, using 10 μl/g (final dose is 100 mg/kg) for 21 days. After tumor cell inoculation, the animals were checked daily for morbidity and mortality. At the time of routine monitoring, the animals were checked for any effects of tumor growth and treatments on behavior such as mobility, food and water consumption, body weight gain/loss (body weight was measured at least two times per week), and any other abnormalities. Mortality and observed clinical signs were recorded for individual animals. Tumor volumes were measured at least two times weekly in two dimensions using a caliper, and the volume was expressed in mm^3 using the formula: V=(L×W×W)/2, where V is tumor volume, L is tumor length (the longest tumor dimension) and W is tumor width (the longest tumor dimension perpendicular to L).
Tumor growth inhibition (TGI) was used as an indicator of antitumor activities, and was calculated from the relative tumor volumes of the control and treatment groups due to the variance of tumor volumes among groups at Day 0. TGI (%)=(1-T/C)×100%; T/C=MTVt/MTVc, MTVt: mean tumor volume in the treatment groups at a specific measurement day, MTVc: mean tumor volume in the control group at a specific measurement day. Moreover, the difference of TGIs between control and treatment groups was analyzed at a measurement day when all or most of the mice in the control groups were alive. In addition, body weight changes over time in each group were used as an index to evaluate the tolerability of test drugs, and were calculated from the average percentage of body weight changes of each individual mouse relative to their initial body weight at randomization using the following formula: group BW %=mean of ((BWt−BW0)/BW0×100%), BWt: body weight at Day t, BW0: body weight at Day 0.
To compare relative tumor volumes of different groups at a pre-specified day, we first used Bartlett's test to check the assumption of homogeneity of variance across all groups. When the p-value of Bartlett's test is >0.05, we run one-way ANOVA to test overall equality of means across all groups. If the p-value of the one-way ANOVA is <0.05, we further perform post hoc testing by running Tukey's HSD (honest significant difference) tests for all pairwise comparisons, and Dunnett's tests for comparing each treatment group with the vehicle group. When the p-value of Bartlett's test is <0.05, we run Kruskal-Wallis test to test overall equality of medians among all groups. If the p-value of the Kruskal-Wallis test is <0.05, we further perform post hoc testing by running Conover's non-parametric test for all pairwise comparisons or for comparing each treatment group with the vehicle group, both with single-step p-value adjustment. All tests were two-sided unless otherwise specified, and p-values<0.05 were regarded as statistically significant. […]

[1] = tested on: YAP/TAZ-TEAD transcription; test: Reporter gene assay for measuring the inhibition of YAP/TAZ-TEAD transcription (TEAD-responsive element luciferase reporter in Hek293T cells); type: cell-based; conditions: Homo sapiens, HEK-293T, 24 h, Hek293T cells transiently transfected with TEAD-responsive element luciferase reporter; 24 hours incubation
Procedure, shortened: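 Hek293T cells transiently transfected with a TEAD-responsive element luciferase reporter, plated onto pre-diluted compounds and incubated 24 h at 37 °C/5% CO2. Luminescence read after SteadyLite addition; % inhibition from RLU relative to vehicle (0%) and a positive control inhibitor (100%), giving IC50.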

SCC-9 = test: Cancer cell line proliferation assay (CellTiter-Glo), SCC-9; type: cell-based; conditions: Homo sapiens, 144 h, Head & neck (squamous), FAT1 HOM DEL, 6 days
Method: as §1

[2] = day 20, against the compound's own vehicle group

GI50 (KMRC3): 0.02 µM
IC50 [1]: < 1 µM
GI50 (SCC-9): 0.05 µM
Compound: C=CC(=O)NC1Cc2ccccc2N(c2ccc(C(F)(F)F)cc2)C1 (stereo not shown) [compound 001, N-(1-(4-(trifluoromethyl)phenyl)-1,2,3,4-tetrahydroquinolin-3-yl)acrylamide]
anti-tumor activity in the xenograft mesothelioma model (NCI-H226 tumor cells): highly statistically significant and strong anti-tumor activity
Mean Tumor Volume (mm^3) on day 20 (NCI-H226 tumor cells; day 20, 8 mice per group): 217.26 ± 45.21 (8) mm^3
T/C (%) (NCI-H226 tumor cells; [2]): 49.62%
TGI (%) (NCI-H226 tumor cells; [2]): 50.38%
